Data reported in patent publication US7125990B2, “Imidazolyl derivatives as corticotropin releasing factor inhibitors” (Bristol-Myers Squibb COmpany, priority 2001, dated 2006).

Target: T1, CRF1 receptors (Homo sapiens, UniProt P34998)
T1 construct: endogenous in cells; host or cells: IMR-32 cells, transformed with 2.5 µM 5'-bromo-2'-deoxyuridine for 10 days; membrane preparation
T1 sequence (P34998 24-415): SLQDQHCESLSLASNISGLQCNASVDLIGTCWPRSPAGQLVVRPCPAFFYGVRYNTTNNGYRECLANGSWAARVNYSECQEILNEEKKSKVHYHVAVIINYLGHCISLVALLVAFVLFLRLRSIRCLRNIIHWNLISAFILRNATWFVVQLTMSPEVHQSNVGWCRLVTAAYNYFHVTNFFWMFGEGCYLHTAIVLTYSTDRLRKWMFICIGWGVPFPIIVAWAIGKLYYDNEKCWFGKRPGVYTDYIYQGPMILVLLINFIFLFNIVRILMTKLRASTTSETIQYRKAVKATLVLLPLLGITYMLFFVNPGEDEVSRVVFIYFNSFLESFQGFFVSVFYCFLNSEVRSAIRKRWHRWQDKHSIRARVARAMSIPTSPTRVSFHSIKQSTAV
Experiment: CRF1 receptor radioligand binding assay ([125I]-oCRF competition, IMR-32 cell membranes)
Conditions: IMR-32 cell membranes, [125I]-oCRF 100 pM; read-out: Ki (CRF-1R)
How it was run: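 Buffer: Tris pH 7.2 with MgCl2, BSA, Triton X-100, aprotinin, leupeptin; reaction stopped with ice-cold wash and filtered. Nonspecific binding set with 10 μM oCRF.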

SMILES | Ki [nM]
CCN(Cc1ccccc1)Cc1c(C(F)(F)F)nc2n(-c3c(C)cc(C)cc3C)c(Cl)cn12 [Example 309, Benzyl-[6-chloro-2-trifluoromethyl-7-(2,4,6-trimethyl-phenyl)-7H-imidazo[1,2-a]imidazol-3-ylmethyl]-ethyl-amine] | < 1000
CCCCN(C)Cc1c(C(F)(F)F)nc2n(-c3c(C)cc(C)cc3C)c(Cl)cn12 [Example 310, Butyl-[6-chloro-2-trifluoromethyl-7-(2,4,6-trimethyl-phenyl)-7H-imidazo[1,2-a]imidazol-3-ylmethyl]-methyl-amine] | < 1000
CCCCN(Cc1ccccc1)Cc1c(C(F)(F)F)nc2n(-c3c(C)cc(C)cc3C)c(Cl)cn12 [Example 311, Benzyl-butyl-[6-chloro-2-trifluoromethyl-7-(2,4,6-trimethyl-phenyl)-7H-imidazo[1,2-a]imidazol-3-ylmethyl]-amine] | < 1000
C=C(C)CN(CC)Cc1c(C(F)(F)F)nc2n(-c3c(C)cc(C)cc3C)c(Cl)cn12 [Example 312, [6-Chloro-2-trifluoromethyl-7-(2,4,6-trimethyl-phenyl)-7H-imidazo[1,2-a]imidazol-3-ylmethyl]-ethyl-(2-methyl-allyl)-amine] | < 100
CCCN(Cc1ccc([N+](=O)[O-])cc1)Cc1c(C(F)(F)F)nc2n(-c3c(C)cc(C)cc3C)c(Cl)cn12 [Example 313, [6-Chloro-2-trifluoromethyl-7-(2,4,6-trimethyl-phenyl)-7H-imidazo[1,2-a]imidazol-3-ylmethyl]-(4-nitro-benzyl)-propyl-amine] | < 1000
Cc1cc(C)c(-n2c(Cl)cn3c(CN(C)Cc4ccco4)c(C(F)(F)F)nc23)c(C)c1 [Example 314, [6-Chloro-2-trifluoromethyl-7-(2,4,6-trimethyl-phenyl)-7H-imidazo[1,2-a]imidazol-3-ylmethyl]-furan-2-ylmethyl-methyl-amine] | < 1000
CCN(Cc1ccc(Cl)c(Cl)c1)Cc1c(C(F)(F)F)nc2n(-c3c(C)cc(C)cc3C)c(Cl)cn12 [Example 315, [6-Chloro-2-trifluoromethyl-7-(2,4,6-trimethyl-phenyl)-7H-imidazo[1,2-a]imidazol-3-ylmethyl]-(3,4-dichloro-benzyl)-ethyl-amine] | < 1000
Cc1cc(C)c(-n2c(Cl)cn3c(CN4CCCC4Cc4ccccc4)c(C(F)(F)F)nc23)c(C)c1 (stereo not drawn) [Example 316, 5-(2-Benzyl-pyrrolidin-1-ylmethyl)-2-chloro-6-trifluoromethyl-1-(2,4,6-trimethyl-phenyl)-1H-imidazo[1,2-a]imidazole] | < 1000
Cc1cc(C)c(-n2c(Cl)cn3c(CN4CCC(c5ccccc5)C4)c(C(F)(F)F)nc23)c(C)c1 (stereo not drawn) [Example 317, 2-Chloro-5-(3-phenyl-pyrrolidin-1-ylmethyl)-6-trifluoromethyl-1-(2,4,6-trimethyl-phenyl)-1H-imidazo[1,2-a]imidazole] | < 1000
Cc1cc(C)c(-n2c(Cl)cn3c(CN(CC4CC4)CC(F)(F)C(F)(F)F)c(C(F)(F)F)nc23)c(C)c1 [Example 318] | < 10
CCN(Cc1c(C(F)(F)F)nc2n(-c3c(C)cc(C)cc3C)c(Cl)cn12)CC1CC1 [Example 319, [6-Chloro-2-trifluoromethyl-7-(2,4,6-trimethyl-phenyl)-7H-imidazo[1,2-a]imidazol-3-ylmethyl]-cyclopropylmethyl-ethyl-amine] | < 10
Cc1cc(C)c(-n2c(Cl)cn3c(CN(CC4CCC4)CC(F)(F)F)c(C(F)(F)F)nc23)c(C)c1 [Example 320, [6-Chloro-2-trifluoromethyl-7-(2,4,6-trimethyl-phenyl)-7H-imidazo[1,2-a]imidazol-3-ylmethyl]-cyclobutylmethyl-(2,2,2-trifluoro-ethyl)-amine] | < 10
CCCN(CCC(F)(F)F)Cc1c(C(F)(F)F)nc2n(-c3c(C)cc(C)cc3C)c(Cl)cn12 [Example 321, [6-Chloro-2-trifluoromethyl-7-(2,4,6-trimethyl-phenyl)-7H-imidazo[1,2-a]imidazol-3-ylmethyl]-propyl-(3,3,3-trifluoro-propyl)-amine] | < 10
CCCN(Cc1c(C(F)(F)F)nc2n(-c3c(C)cc(C)cc3C)c(Cl)cn12)CC(F)(F)F [Example 322, [6-Chloro-2-trifluoromethyl-7-(2,4,6-trimethyl-phenyl)-7H-imidazo[1,2-a]imidazol-3-ylmethyl]-propyl-(2,2,2-trifluoro-ethyl)-amine] | < 10

The remaining lines, values ahead:

Ki [nM] | SMILES
< 1000 | CCCN(Cc1c(C(F)(F)F)nc2n(-c3c(C)cc(C)cc3C)c(Cl)cn12)CC(F)(F)C(F)(F)F [Example 323, [6-Chloro-2-trifluoromethyl-7-(2,4,6-trimethyl-phenyl)-7H-imidazo[1,2-a]imidazol-3-ylmethyl]-(2,2,3,3,3-pentafluoro-propyl)-propyl-amine]
< 1000 | Cc1cc(C)c(-n2c(Cl)cn3c(CN(CCc4ccccc4)CC(F)(F)F)c(C(F)(F)F)nc23)c(C)c1 [Example 324, [6-Chloro-2-trifluoromethyl-7-(2,4,6-trimethyl-phenyl)-7H-imidazo[1,2-a]imidazol-3-ylmethyl]-phenethyl-(2,2,2-trifluoro-ethyl)-amine]
< 100 | Cc1cc(C)c(-n2c(Cl)cn3c(CN(CCC(F)(F)F)Cc4ccccc4)c(C(F)(F)F)nc23)c(C)c1 [Example 327, Benzyl-[6-chloro-2-trifluoromethyl-7-(2,4,6-trimethyl-phenyl)-7H-imidazo[1,2-a]imidazol-3-ylmethyl]-(3,3,3-trifluoro-propyl)-amine]
< 10 | Cc1cc(C)c(-n2c(Cl)cn3c(CN(CCC4CC4)CCC(F)(F)F)c(C(F)(F)F)nc23)c(C)c1 [Example 330, [6-Chloro-2-trifluoromethyl-7-(2,4,6-trimethyl-phenyl)-7H-imidazo[1,2-a]imidazol-3-ylmethyl]-(2-cyclopropyl-ethyl)-(3,3,3-trifluoro-propyl)-amine]
< 10 | Cc1cc(C)c(-n2c(Cl)cn3c(CN(CCC4CC4)CC(F)(F)F)c(C(F)(F)F)nc23)c(C)c1 [Example 331, [6-Chloro-2-trifluoromethyl-7-(2,4,6-trimethyl-phenyl)-7H-imidazo[1,2-a]imidazol-3-ylmethyl]-(2-cyclopropyl-ethyl)-(2,2,2-trifluoro-ethyl)-amine]
< 1000 | Cc1cc(C)c(-n2c(Cl)cn3c(CN(Cc4ccc(F)cc4)CC(F)(F)F)c(C(F)(F)F)nc23)c(C)c1 [Example 332]
< 100 | Cc1cc(C)c(-n2c(Cl)cn3c(CN(CCC(F)(F)F)Cc4ccc(F)cc4)c(C(F)(F)F)nc23)c(C)c1 [Example 333]
< 10 | Cc1cc(C)c(-n2c(Cl)cn3c(CN(CCC(F)(F)F)Cc4ccc(Cl)cc4)c(C(F)(F)F)nc23)c(C)c1 [Example 336, (4-Chloro-benzyl)-[6-chloro-2-trifluoromethyl-7-(2,4,6-trimethyl-phenyl)-7H-imidazo[1,2-a]imidazol-3-ylmethyl]-(3,3,3-trifluoro-propyl)-amine]
< 10 | C=CCN(CCC)Cc1c(C(F)(F)F)nc2n(-c3c(C)cc(C)cc3C)c(Cl)cn12 [Example 339, Allyl-[6-chloro-2-trifluoromethyl-7-(2,4,6-trimethyl-phenyl)-7H-imidazo[1,2-a]imidazol-3-ylmethyl]-propyl-amine]
< 1000 | CCCN(Cc1cccc(F)c1)Cc1c(C(F)(F)F)nc2n(-c3c(C)cc(C)cc3C)c(Cl)cn12 [Example 340, [6-Chloro-2-trifluoromethyl-7-(2,4,6-trimethyl-phenyl)-7H-imidazo[1,2-a]imidazol-3-ylmethyl]-(3-fluoro-benzyl)-propyl-amine]
